“And” between values parts separate entries of the source, which are not always exact repeats. Identical values can stand only once.
Assay: molar heat capacity at constant pressure
Conditions: 101.33 kPa, Vacuum adiabatic calorimetry

N#CCCNc1ccccc1 [3-anilinopropanenitrile]
Conditions | molar heat capacity at constant pressure
83 K, Crystal 2 | 52.6 J/K/mol
83.11 K, Crystal 2 | 52.8 J/K/mol
85.94 K, Crystal 2 | 53.3 J/K/mol
88 K, Crystal 2 | 53.8 J/K/mol
88.94 K, Crystal 2 | 54.1 J/K/mol
91.87 K, Crystal 2 | 55.3 J/K/mol
93 K, Crystal 2 | 55 J/K/mol
94.73 K, Crystal 2 | 54.7 J/K/mol
97.54 K, Crystal 2 | 55.3 J/K/mol
98 K, Crystal 2 | 56 J/K/mol
100.3 K, Crystal 2 | 55.4 J/K/mol
103 K, Crystal 2 | 57 J/K/mol
103.01 K, Crystal 2 | 56 J/K/mol
105.67 K, Crystal 2 | 57.9 J/K/mol
108 K, Crystal 2 | 57.6 J/K/mol
108.29 K, Crystal 2 | 58.1 J/K/mol
110.86 K, Crystal 2 | 58.6 J/K/mol
113 K, Crystal 2 | 58.4 J/K/mol
113.39 K, Crystal 2 | 59.7 J/K/mol
115.91 K, Crystal 2 | 59.1 J/K/mol
118 K, Crystal 2 | 59.1 J/K/mol
118.39 K, Crystal 2 | 59.9 J/K/mol
120.86 K, Crystal 2 | 59.7 J/K/mol
123 K, Crystal 2 | 60.1 J/K/mol
123.29 K, Crystal 2 | 60.2 J/K/mol
125.69 K, Crystal 2 | 61.3 J/K/mol
128 K, Crystal 2 | 61.3 J/K/mol
128.08 K, Crystal 2 | 61.2 J/K/mol
130.44 K, Crystal 2 | 61.4 J/K/mol
132.78 K, Crystal 2 | 62 J/K/mol
133 K, Crystal 2 | 62.6 J/K/mol
135.1 K, Crystal 2 | 62.8 J/K/mol
137.39 K, Crystal 2 | 63.4 J/K/mol
138 K, Crystal 2 | 64.3 J/K/mol
139.66 K, Crystal 2 | 64.3 J/K/mol
141.91 K, Crystal 2 | 65 J/K/mol
143 K, Crystal 2 | 66 J/K/mol
144.13 K, Crystal 2 | 67.1 J/K/mol
146.35 K, Crystal 2 | 66.9 J/K/mol
148 K, Crystal 2 | 67.8 J/K/mol
148.54 K, Crystal 2 | 67.5 J/K/mol
150.73 K, Crystal 2 | 68.2 J/K/mol
152.89 K, Crystal 2 | 68.6 J/K/mol
153 K, Crystal 2 | 69.6 J/K/mol
155.03 K, Crystal 2 | 69.6 J/K/mol
157.16 K, Crystal 2 | 70.4 J/K/mol
158 K, Crystal 2 | 71.3 J/K/mol
159.28 K, Crystal 2 | 71.7 J/K/mol
161.38 K, Crystal 2 | 72.6 J/K/mol
163 K, Crystal 2 | 73.1 J/K/mol
163.47 K, Crystal 2 | 73 J/K/mol
165.54 K, Crystal 2 | 73.7 J/K/mol
167.59 K, Crystal 2 | 74.3 J/K/mol
168 K, Crystal 2 | 74.7 J/K/mol
169.63 K, Crystal 2 | 75.2 J/K/mol
171.66 K, Crystal 2 | 76 J/K/mol
173 K, Crystal 2 | 76.2 J/K/mol
173.68 K, Crystal 2 | 77 J/K/mol
175.7 K, Crystal 2 | 77.8 J/K/mol
177.67 K, Crystal 2 | 78.2 J/K/mol
178 K, Crystal 2 | 77.8 J/K/mol
179.65 K, Crystal 2 | 78.9 J/K/mol
181.61 K, Crystal 2 | 79.9 J/K/mol
183 K, Crystal 2 | 79.5 J/K/mol
183.57 K, Crystal 2 | 81.2 J/K/mol
185.51 K, Crystal 2 | 81.6 J/K/mol
187.45 K, Crystal 2 | 82.1 J/K/mol
188 K, Crystal 2 | 81.5 J/K/mol
189.37 K, Crystal 2 | 83 J/K/mol
191.29 K, Crystal 2 | 84 J/K/mol
193 K, Crystal 2 | 84 J/K/mol
193.19 K, Crystal 2 | 84 J/K/mol
195.09 K, Crystal 2 | 84.8 J/K/mol
196.97 K, Crystal 2 | 84.8 J/K/mol
198 K, Crystal 2 | 86.5 J/K/mol
198.84 K, Crystal 2 | 86.5 J/K/mol
200.68 K, Crystal 2 | 88.1 J/K/mol
202.52 K, Crystal 2 | 88.1 J/K/mol
203 K, Crystal 2 | 89.8 J/K/mol
204.36 K, Crystal 2 | 90.6 J/K/mol
206.19 K, Crystal 2 | 92.3 J/K/mol
208 K, Crystal 2 | 94 J/K/mol
208.02 K, Crystal 2 | 93.1 J/K/mol
209.84 K, Crystal 2 | 94.8 J/K/mol
211.66 K, Crystal 2 | 96.4 J/K/mol
213 K, Crystal 2 | 98.9 J/K/mol
213.46 K, Crystal 2 | 97.3 J/K/mol
215.26 K, Crystal 2 | 98.9 J/K/mol
217.05 K, Crystal 2 | 101 J/K/mol
218 K, Crystal 2 | 105 J/K/mol
218.84 K, Crystal 2 | 102 J/K/mol
220.61 K, Crystal 2 | 105 J/K/mol
222.38 K, Crystal 2 | 107 J/K/mol
223 K, Crystal 2 | 111 J/K/mol
224.14 K, Crystal 2 | 111 J/K/mol
225.88 K, Crystal 2 | 112 J/K/mol
227.6 K, Crystal 2 | 116 J/K/mol
228 K, Crystal 2 | 118 J/K/mol
229.29 K, Crystal 2 | 121 J/K/mol
230.95 K, Crystal 2 | 124 J/K/mol
232.59 K, Crystal 2 | 126 J/K/mol
233 K, Crystal 2 | 125 J/K/mol
234.22 K, Crystal 2 | 129 J/K/mol
235.85 K, Crystal 2 | 131 J/K/mol
237.47 K, Crystal 2 | 132 J/K/mol
238 K, Crystal 2 | 132 J/K/mol
239.08 K, Crystal 2 | 136 J/K/mol
240.67 K, Crystal 2 | 140 J/K/mol
242.24 K, Crystal 2 | 141 J/K/mol
243 K, Crystal 2 | 139 J/K/mol
243.78 K, Crystal 2 | 144 J/K/mol
245.31 K, Crystal 2 | 146 J/K/mol
246.85 K, Crystal 2 | 146 J/K/mol
248 K, Crystal 2 | 146 J/K/mol
248.39 K, Crystal 2 | 147 J/K/mol
249.91 K, Crystal 2 | 148 J/K/mol
251.45 K, Crystal 2 | 149 J/K/mol
252.99 K, Crystal 2 | 150 J/K/mol
253 K, Crystal 2 | 151 J/K/mol
254.53 K, Crystal 2 | 150 J/K/mol
256.06 K, Crystal 2 | 150 J/K/mol
257.59 K, Crystal 2 | 151 J/K/mol
258 K, Crystal 2 | 156 J/K/mol
259.11 K, Crystal 2 | 153 J/K/mol
260.62 K, Crystal 2 | 155 J/K/mol
262.12 K, Crystal 2 | 156 J/K/mol
263 K, Crystal 2 | 160 J/K/mol
263.62 K, Crystal 2 | 158 J/K/mol
265.1 K, Crystal 2 | 158 J/K/mol
266.58 K, Crystal 2 | 160 J/K/mol
268 K, Crystal 2 | 161 J/K/mol
268.05 K, Crystal 2 | 160 J/K/mol
269.52 K, Crystal 2 | 161 J/K/mol
270.98 K, Crystal 2 | 161 J/K/mol
272.44 K, Crystal 2 | 161 J/K/mol
273 K, Crystal 2 | 162 J/K/mol
273.9 K, Crystal 2 | 162 J/K/mol
275.36 K, Crystal 2 | 163 J/K/mol
276.81 K, Crystal 2 | 163 J/K/mol
278 K, Crystal 2 | 162 J/K/mol
278.26 K, Crystal 2 | 164 J/K/mol
279.7 K, Crystal 2 | 164 J/K/mol
281.13 K, Crystal 2 | 165 J/K/mol
282.56 K, Crystal 2 | 165 J/K/mol
283 K, Crystal 2 | 162 J/K/mol
283.98 K, Crystal 2 | 165 J/K/mol
285.41 K, Crystal 2 | 165 J/K/mol
286.82 K, Crystal 2 | 165 J/K/mol
288 K, Crystal 2 | 164 J/K/mol
288.23 K, Crystal 2 | 165 J/K/mol
289.63 K, Crystal 2 | 166 J/K/mol
291.02 K, Crystal 2 | 166 J/K/mol
292.39 K, Crystal 2 | 167 J/K/mol
293 K, Crystal 2 | 168 J/K/mol
293.74 K, Crystal 2 | 169 J/K/mol
295.08 K, Crystal 2 | 170 J/K/mol
296.42 K, Crystal 2 | 171 J/K/mol
297.76 K, Crystal 2 | 174 J/K/mol
298.15 K, Crystal 2 | 179 J/K/mol
299.09 K, Crystal 2 | 177 J/K/mol
300.41 K, Crystal 2 | 180 J/K/mol
301.72 K, Crystal 2 | 185 J/K/mol
303 K, Crystal 2 | 192 J/K/mol and 196 J/K/mol
304.27 K, Crystal 2 | 201 J/K/mol
305 K, Crystal 2 | 206 J/K/mol
305.5 K, Crystal 2 | 213 J/K/mol
306.69 K, Crystal 2 | 231 J/K/mol
307.82 K, Crystal 2 | 260 J/K/mol
308.85 K, Crystal 2 | 301 J/K/mol
309.78 K, Crystal 2 | 355 J/K/mol
310.63 K, Crystal 2 | 390 J/K/mol
311.5 K, Crystal 1 | 329 J/K/mol
312.51 K, Crystal 1 | 280 J/K/mol
313.55 K, Crystal 1 | 303 J/K/mol
314.54 K, Crystal 1 | 330 J/K/mol
315.48 K, Crystal 1 | 365 J/K/mol
316.35 K, Crystal 1 | 410 J/K/mol
317.16 K, Crystal 1 | 466 J/K/mol
317.89 K, Crystal 1 | 538 J/K/mol
318.55 K, Crystal 1 | 629 J/K/mol
319.14 K, Crystal 1 | 738 J/K/mol
319.66 K, Crystal 1 | 865 J/K/mol
320.12 K, Crystal 1 | 1014 J/K/mol
320.52 K, Crystal 1 | 1189 J/K/mol
320.86 K, Crystal 1 | 1380 J/K/mol
321.16 K, Crystal 1 | 1596 J/K/mol
321.42 K, Crystal 1 | 1846 J/K/mol
321.65 K, Crystal 1 | 2037 J/K/mol
321.85 K, Crystal 1 | 2361 J/K/mol
322.03 K, Crystal 1 | 2644 J/K/mol
322.19 K, Crystal 1 | 2885 J/K/mol
322.33 K, Crystal 1 | 3118 J/K/mol
322.45 K, Crystal 1 | 3359 J/K/mol
322.56 K, Crystal 1 | 3742 J/K/mol
322.66 K, Crystal 1 | 4116 J/K/mol
322.75 K, Crystal 1 | 4448 J/K/mol
322.83 K, Crystal 1 | 4648 J/K/mol
322.9 K, Crystal 1 | 5022 J/K/mol
322.97 K, Crystal 1 | 5280 J/K/mol
323.03 K, Crystal 1 | 5513 J/K/mol
323.09 K, Crystal 1 | 5621 J/K/mol
323.15 K, Crystal 1 | 6011 J/K/mol
323.2 K, Crystal 1 | 6386 J/K/mol
323.24 K, Crystal 1 | 6585 J/K/mol
323.29 K, Crystal 1 | 6627 J/K/mol
323.33 K, Crystal 1 | 6677 J/K/mol
323.37 K, Liquid | 6568 J/K/mol
323.42 K, Liquid | 6236 J/K/mol
323.46 K, Liquid | 5862 J/K/mol
323.5 K, Liquid | 5604 J/K/mol
323.55 K, Liquid | 5446 J/K/mol
323.59 K, Liquid | 5080 J/K/mol
323.64 K, Liquid | 4673 J/K/mol
323.69 K, Liquid | 4199 J/K/mol
323.73 K, Liquid | 3816 J/K/mol
323.78 K, Liquid | 3517 J/K/mol
323.83 K, Liquid | 2536 J/K/mol
324 K, Liquid | 1014 J/K/mol
324.78 K, Liquid | 242 J/K/mol
325 K, Liquid | 244 J/K/mol
325.93 K, Liquid | 245 J/K/mol
327.07 K, Liquid | 245 J/K/mol
328.2 K, Liquid | 246 J/K/mol
329.34 K, Liquid | 246 J/K/mol
330 K, Liquid | 247 J/K/mol
330.46 K, Liquid | 247 J/K/mol
331.59 K, Liquid | 247 J/K/mol
332.72 K, Liquid | 247 J/K/mol
333.84 K, Liquid | 247 J/K/mol
334.96 K, Liquid | 248 J/K/mol
335 K, Liquid | 249 J/K/mol
336.08 K, Liquid | 250 J/K/mol
337.19 K, Liquid | 251 J/K/mol
338.3 K, Liquid | 253 J/K/mol
339.4 K, Liquid | 254 J/K/mol
340 K, Liquid | 254 J/K/mol
340.5 K, Liquid | 255 J/K/mol
342.69 K, Liquid | 259 J/K/mol
343.77 K, Liquid | 262 J/K/mol
344.84 K, Liquid | 265 J/K/mol
345 K, Liquid | 266 J/K/mol
345.9 K, Liquid | 269 J/K/mol
346.95 K, Liquid | 273 J/K/mol
348.01 K, Liquid | 278 J/K/mol
349.04 K, Liquid | 284 J/K/mol
350 K, Liquid | 288 J/K/mol
351.08 K, Liquid | 294 J/K/mol
352.08 K, Liquid | 300 J/K/mol
353 K, Liquid | 308 J/K/mol
353.07 K, Liquid | 309 J/K/mol
